Literature values as cited in US20100234388A1, “SUBSTITUTED PDE5 INHIBITORS” (AUSPEX PHARMACEUTICALS, INC., priority 2006, published 2010).

What was measured:
[1] = test system: PDE5 versus PDE6; settings: compared with sildenafil and vardenafil
[2] = human, in vivo
[3] = human, in vivo; remark: listed apart in the source

## CN1CC(=O)N2[C@H](c3ccc4c(c3)OCO4)c3[nH]c4ccccc4c3C[C@@H]2C1=O [tadalafil, Tadalafil]
[1]
  selectivity for PDE5 versus PDE6: much more selective
[2]
  exercise tolerance: improve exercise tolerance
[3]
  patients with side effects of chromatopsia, increased sensitivity to light, and blurred vision: less than 0.1%
